Results taken from US20050130989A1, “N-arylheteroaromatic products compositions containing them and use thereof” (Aventis Pharma S. A., priority 2003, published 2005).
Where a name gives a salt, the structure may show the parent alone.

Biological target: T1, tubulin (Sus scrofa, UniProt P02550+P02554)
T1 construct: Tubulin is purified from pig brain according to published methods; from tissue; host or cells: pig brain
Experiment: Evaluation of the inhibition of tubulin polymerization (turbidimetry)
Assay type: biochemical, pig
Conditions: tubulin 10 μm (1 mg/ml), 37° C., turbidity at 350 nm; concentration that inhibits the rate of polymerization by 50%; read-out: Inhibition of tubulin polymerization IC 50 (μm)
Method: Tubulin is purified from pig brain according to published methods (Shelanski et al., 1973, Proc. Natl. Acad. Sci. USA, 70, 765-768. Weingarten et al., 1975, Proc. Natl. Acad. Sci. USA, 72, 1858-1862). Briefly, the brains are ground and centrifuged in an extraction buffer. The tubulin contained in the supernatant of the extract undergoes two successive cycles of polymerization at 37° C. and depolymerization at 4° C., before being separated from the MAPs (Microtubule Associated Proteins) by chromatography on a phosphocellulose P11 column (Whatman). The tubulin thus isolated is more than 95% pure. It is stored in a buffer known as RB/2 30% glycerol, the composition of which is 50 mM MES-NaOH [2-(N-morpholino)ethanesulfonic acid], pH 6.8; 0.25 mM MgCl2; 0.5 mM EGTA; 30% glycerol (v/v), 0.2 mM GTP (guanosine-5′-triphosphate).
The polymerization of tubulin to microtubules is monitored by turbidimetry as follows: the tubulin is adjusted to a concentration of 10 μm (1 mg/ml) in RB/2 30% glycerol buffer to which 1 mM GTP and 6 mM MgCl2 are added. The polymerization is triggered by an increase in temperature from 6° C. to 37° C. in a cuvette with an optical path length of 1 cm, placed in a UVIKON 931 spectrophotometer (Kontron) equipped with a thermostatically maintained cuvette holder. The increase in the turbidity of the solution is monitored at 350 nm.
The products are dissolved at 10 mM in DMSO and added at variable concentrations (0.5 to 10 μm) to the tubulin solution before polymerization. The IC50 value is defined as the concentration of product that inhibits the rate of polymerization by 50%.

T1 sequence (P02550 whole entry): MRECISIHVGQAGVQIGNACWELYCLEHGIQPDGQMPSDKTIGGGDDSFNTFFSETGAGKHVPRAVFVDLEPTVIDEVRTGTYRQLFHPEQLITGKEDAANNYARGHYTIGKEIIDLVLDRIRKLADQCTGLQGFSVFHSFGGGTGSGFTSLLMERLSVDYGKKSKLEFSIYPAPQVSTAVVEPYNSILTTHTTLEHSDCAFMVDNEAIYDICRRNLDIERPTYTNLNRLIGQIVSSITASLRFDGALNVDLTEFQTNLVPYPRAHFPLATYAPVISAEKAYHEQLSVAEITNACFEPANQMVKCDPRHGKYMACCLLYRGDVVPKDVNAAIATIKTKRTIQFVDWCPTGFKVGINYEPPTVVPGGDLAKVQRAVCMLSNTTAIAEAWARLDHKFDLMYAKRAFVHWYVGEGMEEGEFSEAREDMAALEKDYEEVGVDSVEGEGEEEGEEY
T1 sequence (P02554 whole entry): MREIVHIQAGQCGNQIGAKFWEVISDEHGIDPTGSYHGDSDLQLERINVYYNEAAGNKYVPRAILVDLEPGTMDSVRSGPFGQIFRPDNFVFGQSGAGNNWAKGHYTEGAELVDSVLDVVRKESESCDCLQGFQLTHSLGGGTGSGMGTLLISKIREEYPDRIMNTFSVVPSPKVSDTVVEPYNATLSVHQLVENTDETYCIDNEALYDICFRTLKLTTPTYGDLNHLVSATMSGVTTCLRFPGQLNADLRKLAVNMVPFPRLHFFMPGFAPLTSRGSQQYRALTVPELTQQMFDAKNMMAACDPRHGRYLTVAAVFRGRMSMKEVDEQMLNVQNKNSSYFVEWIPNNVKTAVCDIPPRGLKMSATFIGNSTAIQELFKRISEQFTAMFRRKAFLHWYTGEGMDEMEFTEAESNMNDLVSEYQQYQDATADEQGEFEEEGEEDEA

Row | IC50 [µM] | Compound
1 | 7 | Cc1cc(C(=O)N2CCN(c3cc(Cl)ccc3C)CC2)n(-c2ccc(F)cc2)n1 [3/117]
2 | 0.8 | Cc1cccc(-n2nc(C)cc2C(=O)N2CCN(c3cccc(C)c3C)CC2)c1 [3/114]
3 | 12.5 | Cc1cc(C(=O)N2CCN(c3cc(Cl)ccc3C)CC2)n(-c2cccc(Cl)c2)n1 [3/70]
4 | 3.5 | O=C(c1cc(Br)nn1-c1ccc(Br)cc1)N1CCN(c2cccc(Cl)c2)CC1 [Example E64, [5-Bromo-2-(4-bromophenyl)-2H-pyrazol-3-yl][4-(3-chlorophenyl)piperazin-1-yl]methanone]
5 | 17.1 | COc1cc(OC)cc(N2CCN(C(=O)c3cc(Br)nn3-c3ccc(Br)cc3)CC2)c1 [Example E81, [5-Bromo-2-(4-bromophenyl)-2H-pyrazol-3-yl][4-(3,5-dimethoxyphenyl)-piperazin-1-yl]methanone]
6 | 20 | COC(=O)CCC(=O)Nc1cccc(N2CCN(C(=O)c3cc(C)nn3-c3ccccc3)CC2)c1 [Example E83, Methyl N-{3-[4-(5-methyl-2-phenyl-2H-pyrazole-3-carbonyl)piperazin-1-yl]-phenyl}succinamate]
7 | 20 | COc1ccc(-n2nc(C)cc2C(=O)N2CCN(c3ccccc3)CC2)cc1 [3/1]
8 | 21 | Cc1cc(C(=O)N2CCN(c3ccc(C)c(C)c3)CC2)n(-c2ccc(F)cc2)n1 [3/103]
9 | 3.2 | N-{{3-{[4-(3,5-Dimethoxyphenyl)piperazin-1-yl]carbonyl}-2-phenyl-2H-pyrazin-5-yl}glycine tert-butyl ester [Example E137]
10 | 22 | COc1cc(OC)cc(N2CCN(C(=O)c3cc(N4CCCCC4)nn3-c3ccccc3)CC2)c1 [Example E138, [4-(3,5-dimethoxyphenyl)piperazin-1-yl][5-(piperid-1-yl)-2-phenyl-2H-pyrazol-3-yl)methanone]
11 | 12.9 | COc1cc(OC)cc(N2CCN(C(=O)c3cc(-c4ccsc4C=O)nn3-c3ccccc3)CC2)c1 [Example E114, 3-{5-[4-(3,5-Dimethoxyphenyl)piperazine-1-carbonyl]-1-phenyl-1H-pyrazol-3-yl}thiophene-2-carboxaldehyde]
12 | 7.5 | Cc1cc(C(=O)N2CCN(c3cccc(C)c3C)CC2)n(-c2cccc(Cl)c2)n1 [3/122]
13 | 3 | CSc1ccccc1N1CCN(C(=O)c2cc(C)nn2-c2ccccc2)CC1 [3/12]
14 | 4.2 | COc1cccc(-n2nc(C)cc2C(=O)N2CCN(c3ccccc3SC)CC2)c1 [3/137]
15 | 2.5 | COc1cc(OC)cc(N2CCN(C(=O)c3cc(COCCF)nn3-c3ccccc3)CC2)c1 [Example E123, [4-(3,5-Dimethoxyphenyl)piperazin-1-yl][5-(2-fluoroethoxymethyl)-2-phenyl-2H-pyrazol-3-yl]methanone]
16 | 0.9 | Cc1cc(C(=O)N2CCN(c3cccc(CO)c3)CC2)n(-c2ccccc2)n1 [Example E132, [4-(3-Hydroxymethylphenyl)piperazin-1-yl](5-methyl-2-phenyl-2H-pyrazol-3-yl)methanone]
17 | 4.3 | COc1cccc(-n2nc(C)cc2C(=O)N2CCN(c3ccccc3C)CC2)c1 [3/134]
18 | 2.3 | COc1cc(OC)cc(N2CCN(C(=O)c3cc(C(C)O)nn3-c3ccccc3)CC2)c1 (stereo not shown) [Example E127, [4-(3,5-Dimethoxyphenyl)piperazin-1-yl][5-(1-hydroxyethyl)-2-phenyl-2H-pyrazol-3-yl]methanone]
19 | 2 | COc1cccc(N2CCN(C(=O)c3cc(C)nn3-c3ccccc3)CC2)n1 [Example E8, [4-(6-Methoxypyrid-2-yl)piperazin-1-yl](5-methyl-2-phenyl-2H-pyrazol-3-yl)-methanone]
20 | 3 | CCOC(=O)/C=C/c1cc(C(=O)N2CCN(c3cc(OC)cc(OC)c3)CC2)n(-c2ccccc2)n1 [Example E112, Ethyl E-3-{5-[4-(3,5-dimethoxyphenyl)piperazine-1-carbonyl]-1-phenyl-1H-pyrazol-3-yl}acrylate]
21 | < 25 | COc1cc(OC)cc(N2CCN(C(=O)c3cc(C(O)c4ccccc4)nn3-c3ccccc3)CC2)c1 (stereo not shown) [Example E131, [4-(3,5-Dimethoxyphenyl)piperazin-1-yl][5-(hydroxyphenylmethyl)-2-phenyl-2H-pyrazol-3-yl]methanone]
22 | 12.5 | Cc1cc(C(=O)N2CCN(c3ccccn3)CC2)n(-c2ccccc2)n1 [3/107]

Row | IC50 [µM] | Compound
23 | 12.5 | Cc1cc(C(=O)N2CCN(c3ccccc3F)CC2)n(-c2ccccc2)n1 [3/111]
24 | 2.9 | COc1cc(OC)cc(N2CCN(C(=O)c3c(F)c(F)nn3-c3ccccc3)CC2)c1 [Example E139, [4-(3,5-dimethoxyphenyl)piperazin-1-yl](4,5-difluoro-2-phenyl-2H-pyrazol-3-yl)methanone]
25 | 1.8 | COc1ccc(Cl)cc1N1CCN(C(=O)c2cc(C)nn2-c2cccc(Cl)c2)CC1 [3/127]
26 | 20 | CCOc1ccccc1N1CCN(C(=O)c2cc(C)nn2-c2cccc(C)c2)CC1 [3/115]
27 | 0.9 | COc1cc(OC)cc(N2CCN(C(=O)c3cc(N4CCC4)nn3-c3ccccc3)CC2)c1 [Example E129, [5-(Azetidin-1-yl)-2-phenyl-2H-pyrazol-3-yl][4-(3,5-dimethoxyphenyl)piperazin-1-yl]methanone]
28 | 0.8 | COC(=O)/C=C/c1cc(C(=O)N2CCN(c3cc(OC)cc(OC)c3)CC2)n(-c2ccccc2)n1 [Example E126, Methyl E-3-{5-[4-(3,5-dimethoxyphenyl)piperazine-1-carbonyl]-1-phenyl-1H-pyrazol-3-yl}acrylate]
29 | 20.2 | Cc1cc(C(=O)N2CCN(c3cccc(Cl)c3)CC2)n(-c2ccc([N+](=O)[O-])cc2)n1 [Example E49, [4-(3-Chlorophenyl)piperazin-1-yl][5-methyl-2-(4-nitrophenyl)-2H-pyrazol-3-yl]-methanone]
30 | 0.5 | COc1cc(OC)cc(N2CCN(C(=O)c3cc(CC#N)nn3-c3ccccc3)CC2)c1 [Example E135, (5-Cyanomethyl-2-phenyl-2H-pyrazol-3-yl)[4-(3,5-dimethoxyphenyl)piperazin-1-yl]methanone]
31 | 18 | O=C(c1cc(CSc2ccccc2)nn1-c1ccccc1)N1CCN(c2cccc(Cl)c2)CC1 [Example E102, [4-(3-Chlorophenyl)piperazin-1-yl](2-phenyl-5-phenylsulfanylmethyl-2H-pyrazol-3-yl)methanone]
32 | 16.5 | Cc1cc(C(=O)N2CCN(c3cncc(O)c3)CC2)n(-c2ccccc2)n1 [Example E140, [4-(5-hydroxypyrid-3-yl)piperazin-1-yl](5-methyl-2-phenyl-2H-pyrazol-3-yl)-methanone]
33 | 12 | Cc1cc(C(=O)N2CCN(c3cccc4ccccc34)CC2)n(-c2cccc(Cl)c2)n1 [3/124]
34 | 1.3 | Cc1cc(C(=O)N2CCN(c3cccc(OC(F)F)c3)CC2)n(-c2ccccc2)n1 [Example E136, [4-(3-Difluoromethoxyphenyl)piperazin-1-yl](5-methyl-2-phenyl-2H-pyrazol-3-yl)methanone hydrochloride]
35 | < 25 | COc1ccccc1N1CCN(C(=O)c2cc(C)nn2-c2ccc(C)cc2)CC1 [3/130]
36 | 1.55 | Cc1ccc(C)c(-n2nc(C)cc2C(=O)N2CCN(c3cccc(Cl)c3)CC2)c1 [Example E47, [4-(3-Chlorophenyl)piperazin-1-yl][2-(2,5-dimethylphenyl)-5-methyl-2H-pyrazol-3-yl]methanone]
37 | 17.9 | COc1cc(OC)cc(N2CCN(C(=O)c3cc(CN)nn3-c3ccccc3)CC2)c1 [Example E120, (5-Aminomethyl-2-phenyl-2H-pyrazol-3-yl)[4-(3,5-dimethoxyphenyl)piperazin-1-yl]methanone]
38 | < 25 | COc1cc(OC)cc(N2CCN(C(=O)c3cc(C(O)C4CCCC4)nn3-c3ccccc3)CC2)c1 (stereo not shown) [Example E124, [5-(Cyclopentylhydroxymethyl)-2-phenyl-2H-pyrazol-3-yl][4-(3,5-dimethoxy-phenyl)piperazin-1-yl]methanone]
39 | 1.5 | C=CCNc1cc(C(=O)N2CCN(c3cc(OC)cc(OC)c3)CC2)n(-c2ccccc2)n1 [Example E130, (5-Allylamino-2-phenyl-2H-pyrazol-3-yl)[4-(3,5-dimethoxyphenyl)piperazin-1-yl]methanone]
40 | 3.5 | Cc1ccc(C)c(N2CCN(C(=O)c3cc(C)nn3-c3ccccc3)CC2)c1 [3/108]
41 | 9.2 | COCOCc1cc(C(=O)N2CCN(c3cccc(C(N)=O)c3)CC2)n(-c2ccccc2)n1 [Example E113, 3-[4-(5-Methoxymethoxymethyl-2-phenyl-2H-pyrazole-3-carbonyl)piperazin-1-yl]benzamide]
42 | < 25 | Cc1cc(C(=O)N2CCN(c3ccc4c(c3)OCCO4)CC2)n(-c2cccc(F)c2)n1 [3/100]
43 | 4.1 | CCC(O)c1cc(C(=O)N2CCN(c3cc(OC)cc(OC)c3)CC2)n(-c2ccccc2)n1 (stereo not shown) [Example E125, [4-(3,5-Dimethoxyphenyl)piperazin-1-yl][5-(1-hydroxypropyl)-2-phenyl-2H-pyrazol-3-yl]methanone]
